In patent US20250215460A1, “MICROBIAL […] THE CONVERSION OF CARBOHYDRATES” (Ohio State Innovation Foundation, priority 2022, published 2025):

Test system: C. tyrobutyricum
Assay: Batch fermentation in stirred-tank bioreactor on glucose and xylose with acetate and benzyl viologen added
Assay type: cell-based, Clostridium tyrobutyricum
Conditions: in the presence of 3.75 μM BV (0.30 g/g before BV addition); pH 6.0, ~18 g/L acetate added at ~48 h
Method: Batch fermentation in a stirred-tank bioreactor with C. tyrobutyricum grown on glucose and xylose at pH 6.0 was studied with the addition of ˜18 g/L acetate and 3.75 μM benzyl viologen (BV) at ˜48 h. With BV and acetate addition, C. tyrobutyricum converted glucose, xylose, and acetate simultaneously to butyrate as the sole fermentation product with close to 100% purity at an overall yield of ˜0.48 g/g substrate. Almost all glucose and acetate (both produced before BV addition and externally added) were consumed to produce butyrate, reaching a high concentration of ˜46 g/L. Butyric acid yield from sugars increased from 0.30 g/g before BV addition to 0.52 g/g from both sugars and acetate consumed in the presence of 3.75 μM BV. The theoretical yield of butyric acid from glucose in the fermentation is 0.8 mol/mol (0.39 g/g) when acetate (0.4 mol/mol) and carbon dioxide (2 mol/mol) are also produced as co-products. In contrast, butyrate formation from acetate has a theoretical yield of 0.73 g/g (0.5 mol/mol), which is 87.2% higher than that from glucose, because no substrate carbon is lost in carbon dioxide. In addition to the higher butyrate yield, butyrate was produced as the only main product in the fermentation with a high acid purity of 98.3%, which was much higher than ˜80% in typical butyric acid fermentation. […]

Which “Butyric acid yield from both sugars and acetate consumed” value does the source give for c1ccc(C[n+]2ccc(-c3cc[n+](Cc4ccccc4)cc3)cc2)cc1 [BV, benzyl viologen] here?
Its value is 0.52 g/g.
